Results as given in ChEMBL document CHEMBL1201862, “PubChem BioAssay data set” (2004).
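Interpolation was linear, between the two tested concentrations surrounding the appropriate level; five concentrations were tested over 48 hours in 96-well plates. GI50 is the concentration that inhibits growth by half.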 Activity calls are given as the source filed them. Cut-off read from the data, not from the text of the source: active = GI50 up to about 1.1 µM and inactive = higher.

Tests used:
Assay in all cases: NCI anticancer screen, dose series, 48 h
[1] = test system: RXF 631
[2] = test system: SNB-78
[3] = test system: HOP-18
[4] = test system: LXFL 529
[5] = test system: DLD-1
[6] = test system: M19-MEL
[7] = test system: XF498
[8] = test system: MDA-N
[9] = test system: Hs-578T

| Structure (SMILES) | GI50 [1] | GI50 [2] | GI50 [3] | GI50 [4] | GI50 [5] | GI50 [6] | GI50 [7] | GI50 [8] | GI50 [9] |
| --- | --- | --- | --- | --- | --- | --- | --- | --- | --- |
| CC(=O)O[C@@H]1CC[C@@]2(C)C(=O)C34C[C@@]5(C)C([C@@H](C)CCCC(C)C)CCC5(C)[C@](O)(O3)C(=O)[C@H]4C2C1(C)C (stereo partly drawn) | 12.6 µM (inactive) | 20.8 µM (inactive) | 15.8 µM (inactive) | 16.7 µM (inactive) | 18 µM (inactive) | 13.8 µM (inactive) | – | – | – |
| Cc1ccc(NC(=O)C2C3CCC(O3)C2C(=O)O)cc1 (stereo not drawn) | 53.7 µM (inactive) | > 86.7 µM (inactive) | > 86.3 µM (inactive) | > 46.2 µM (inactive) | > 54.1 µM (inactive) | > 61.2 µM (inactive) | 22.6 µM (inactive) | – | – |
| Cc1cc2c(=O)cc(-c3ccncc3)oc2c(C(=O)O)c1C | > 100 µM (inactive) | > 100 µM (inactive) | > 100 µM (inactive) | > 100 µM (inactive) | – | > 100 µM (inactive) | > 100 µM (inactive) | – | – |
| CC(=O)N1C(=O)C(=O)c2cc(Cl)ccc21 | > 100 µM (inactive) | > 100 µM (inactive) | > 100 µM (inactive) | > 100 µM (inactive) | > 100 µM (inactive) | > 100 µM (inactive) | 0.234 µM (active) | – | – |
| Cn1cnc([N+](=O)[O-])c1Sc1nnnn1-c1ccccc1 | 14.2 µM (inactive) | 13.7 µM (inactive) | 1.58 µM (inactive) | 4.27 µM (inactive) | 6.68 µM (inactive) | 12.1 µM (inactive) | 11.6 µM (inactive) | – | – |
| CN1CCN(CCn2c3c4ccccc4ccc3c3oc(=O)c4ccccc4c32)CC1 | 5.19 µM (inactive) | 11.4 µM (inactive) | 12.6 µM (inactive) | 4.06 µM (inactive) | 2.28 µM (inactive) | 10.8 µM (inactive) | – | 1.56 µM (inactive) | 4.79 µM (inactive) |
| Cc1ccc(NC(=O)CC(=O)n2nc(-c3ccccc3)c(/N=N/c3ccc(Cl)cc3)c2-c2ccccc2)cc1 | > 100 µM (inactive) | > 100 µM (inactive) | 39 µM (inactive) | 64.7 µM (inactive) | 15.3 µM (inactive) | 22 µM (inactive) | – | – | – |
| Cc1ccc(S(=O)(=O)OC(C=O)C(O)C(O)COC(c2ccccc2)(c2ccccc2)c2ccccc2)cc1 (stereo not drawn) | 0.46 µM (active) | – | – | 12.8 µM (inactive) | – | 13.1 µM (inactive) | 15.8 µM (inactive) | – | – |
| Cc1c(C(=O)C/C(=N/NC(=O)C[n+]2ccccc2)C(=O)Nc2ccccc2)[n+]([O-])c2ccccc2[n+]1[O-] | > 100 µM (inactive) | > 100 µM (inactive) | > 100 µM (inactive) | > 100 µM (inactive) | > 100 µM (inactive) | > 100 µM (inactive) | > 100 µM (inactive) | – | – |
| C=C1CC(CCCl)(c2ccccc2)OC1=O (stereo not drawn) | > 42.7 µM (inactive) | 42.2 µM (inactive) | > 42.9 µM (inactive) | 20 µM (inactive) | 20.1 µM (inactive) | 34.7 µM (inactive) | 41.2 µM (inactive) | – | – |
| COC(=O)C(=O)C(C(=O)C(=O)Nc1ccc([N+](=O)[O-])cc1)c1nc2ccccc2nc1O (stereo not drawn) | > 100 µM (inactive) | – | > 100 µM (inactive) | 34.2 µM (inactive) | > 100 µM (inactive) | > 100 µM (inactive) | > 100 µM (inactive) | – | – |
| O=C(Nc1cccc(Cl)c1)c1cc2cc(/N=N/c3ccc(Br)cc3)ccc2oc1=O | 68.1 µM (inactive) | 52.8 µM (inactive) | 63.2 µM (inactive) | 14.1 µM (inactive) | 40 µM (inactive) | > 10 µM (inactive) | 46.8 µM (inactive) | – | – |
